According to patent US12404304B1, “Telomerase reverse transcriptase (TERT) expression enhancing compounds and methods for using the same” (Sierra Sciences, LLC, priority 2007, dated 2025):
Where two headings read alike, the source gives them in different places.

Columns and labels:
[1] = system: viable cells in culture; test: Cell viability assay (CellTiter-Glo Luminescent Cell Viability Assay, ATP quantitation, percent of vehicle control)
[2] = system: human TERT expression (hTERT mRNA); test: Quantitative real-time RT-PCR of hTERT mRNA expression (Ct, transcripts) in compound-treated cells; assay type: cell-based
In short: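 Read-out is cycle threshold, the cycle at which probe fluorescence released by Taq 5′-nuclease activity crosses a set level; Ct falls as hTERT mRNA rises. cDNA of treated and untreated cells was compared, with starting transcripts quantified against a known-cDNA standard curve.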

SMILES: CC1CCN(C(=S)NC(=O)c2sc3ccccc3c2Cl)CC1 [compound 1422]
- Average Cell Viability after 24 Hours (% DMSO) [1]: 102.65 % DMSO
- Average Number of hTERT Transcripts [2]: 19.95

SMILES: CCOC(=O)C1=C(C)NC2=C(C(=O)CC(c3ccccc3)C2)C1c1cccc(F)c1 (stereo not shown) [compound 1244]
- Average Cell Viability after 24 Hours (% DMSO) [1]: 80.52 % DMSO
- Average Number of hTERT Transcripts ([2]; quantitative real-time RT-PCR): 9.34

SMILES: COc1ccc2sc(Nc3nc(C)n(-c4ccccc4)c(=O)n3)nc2c1 [compound 1170]
- Average Cell Viability after 24 Hours (% DMSO) [1]: 36.74 % DMSO
- Average Number of hTERT Transcripts ([2]; quantitative real-time RT-PCR): 102.53

SMILES: Cc1cc(C)c(S(=O)(=O)Nc2ccccc2C(=O)NCCc2ccccc2)c(C)c1 [compound 1420]
- Average Cell Viability after 24 Hours (% DMSO) [1]: 73.35 % DMSO
- Average Number of hTERT Transcripts [2]: 57.36

SMILES: Cc1csc(-n2nc(C)c(CCC(=O)Nc3ccc(F)cc3)c2O)n1 [compound 1132]
- Average Cell Viability after 24 Hours (% DMSO) [1]: 91.26 % DMSO
- Average Number of hTERT Transcripts ([2]; quantitative real-time RT-PCR): 81.62

SMILES: O=C(NCCN1CCOCC1)c1cc(-c2ccccc2)on1 [compound 1506]
- Average Cell Viability after 24 Hours (% DMSO) [1]: 84.31 % DMSO
- Average Number of hTERT Transcripts [2]: 52.39

SMILES: COc1ccc(OC)c(N(C(=O)Cc2ccccc2)c2nc(-c3ccc(C)cc3)c(C)s2)c1 [compound 1416]
- Average Cell Viability after 24 Hours (% DMSO) [1]: 95.26 % DMSO
- Average Number of hTERT Transcripts [2]: 15.42

SMILES: CCC(C)c1ccccc1OCCCCN1CCN(C)CC1 (stereo not shown) [compound 1378]
- Average Cell Viability after 24 Hours (% DMSO) [1]: 89.06 % DMSO
- Average Number of hTERT Transcripts [2]: 11.15

SMILES: CCC(=O)NC(=S)Nc1ccccc1C#N [compound 1419]
- Average Cell Viability after 24 Hours (% DMSO) [1]: 87.51 % DMSO
- Average Number of hTERT Transcripts [2]: 5.40

SMILES: CC(/C=C/c1ccc(N(C)C)cc1)=N\NC(=N)SC1CC(=O)N(c2ccc(Cl)cc2)C1=O (stereo not shown) [compound 1473]
- Average Cell Viability after 24 Hours (% DMSO) [1]: 69.29 % DMSO
- Average Number of hTERT Transcripts [2]: 32.72

SMILES: CCCn1c(=O)n(CC)c(=O)c2ccccc21 [compound 1359]
- Average Cell Viability after 24 Hours (% DMSO) [1]: 104.81 % DMSO
- Average Number of hTERT Transcripts ([2]; quantitative real-time RT-PCR): 13.21

SMILES: O=C(O)c1ccc(NC(=S)NC(=O)c2cccc(Cl)c2)cc1 [compound 1379]
- Average Cell Viability after 24 Hours (% DMSO) [1]: 82.14 % DMSO
- Average Number of hTERT Transcripts [2]: 12.37

SMILES: Oc1cc(-c2ccc(Cl)cc2)nn1-c1nc2ccccc2[nH]1 [compound 1121]
- Average Cell Viability after 24 Hours (% DMSO) [1]: 52.77 % DMSO
- Average Number of hTERT Transcripts ([2]; quantitative real-time RT-PCR): 119.73

SMILES: Cc1ccc2nc(-c3ccc(NC(=S)Nc4cccc([N+](=O)[O-])c4)cc3)sc2c1 [compound 1443]
- Average Cell Viability after 24 Hours (% DMSO) [1]: 77.16 % DMSO
- Average Number of hTERT Transcripts [2]: 7.82

SMILES: CN1CCCC(OC(=O)COc2ccc(F)cc2)C1 (stereo not shown) [compound 1389]
- Average Cell Viability after 24 Hours (% DMSO) [1]: 93.93 % DMSO
- Average Number of hTERT Transcripts [2]: 9.17

SMILES: O=C(Nc1nc(-c2ccccn2)cs1)c1cccc(S(=O)(=O)N2CCCCC2)c1 [compound 1174]
- Average Cell Viability after 24 Hours (% DMSO) [1]: 73.06 % DMSO
- Average Number of hTERT Transcripts ([2]; quantitative real-time RT-PCR): 12.12

SMILES: O=C(CSc1nc2ccccc2c(=O)n1-c1ccc(Cl)cc1)Nc1cccc(Cl)c1 [compound 1401]
- Average Cell Viability after 24 Hours (% DMSO) [1]: 96.20 % DMSO
- Average Number of hTERT Transcripts [2]: 7.24

SMILES: O=C(CN1C(C(=O)c2ccccc2)=C(O)c2ccccc2S1(=O)=O)c1ccccc1 [compound 1212]
- Average Cell Viability after 24 Hours (% DMSO) [1]: 80.54 % DMSO
- Average Number of hTERT Transcripts ([2]; quantitative real-time RT-PCR): 38.44

SMILES: C/C(=N\NC(=O)Cc1ccc(Cl)cc1)c1ccccn1 [compound 1275]
- Average Cell Viability after 24 Hours (% DMSO) [1]: 71.98 % DMSO
- Average Number of hTERT Transcripts ([2]; quantitative real-time RT-PCR): 127.83

SMILES: NCc1ccc(CNC(=O)c2cc(-c3cccs3)on2)cc1 [compound 1489]
- Average Cell Viability after 24 Hours (% DMSO) [1]: 107.24 % DMSO
- Average Number of hTERT Transcripts [2]: 3.77

SMILES: COc1ccc(-c2cc(=O)n3nc(C)c(-c4ccccc4)c3[nH]2)cc1 [compound 1150]
- Average Cell Viability after 24 Hours (% DMSO) [1]: 86.82 % DMSO
- Average Number of hTERT Transcripts ([2]; quantitative real-time RT-PCR): 80.37

SMILES: COc1ccc(OCCCN2CCN(c3ccccc3OC)CC2)cc1 [compound 1382]
- Average Cell Viability after 24 Hours (% DMSO) [1]: 98.31 % DMSO
- Average Number of hTERT Transcripts [2]: 6.08

SMILES: CCCCCOC(=O)c1c(C)oc2ccc(NS(=O)(=O)c3ccc(OC)cc3)cc12 [compound 1239]
- Average Cell Viability after 24 Hours (% DMSO) [1]: 66.47 % DMSO
- Average Number of hTERT Transcripts ([2]; quantitative real-time RT-PCR): 31.94

SMILES: CCC(C)NS(=O)(=O)c1ccc(NC(=O)CN2C(=O)c3ccccc3C2=O)cc1 (stereo not shown) [compound 1431]
- Average Cell Viability after 24 Hours (% DMSO) [1]: 100.20 % DMSO
- Average Number of hTERT Transcripts [2]: 9.12

SMILES: Cc1ccc(Nc2nc3nonc3nc2NC(C)(C)C)cc1C [compound 1229]
- Average Cell Viability after 24 Hours (% DMSO) [1]: 79.23 % DMSO
- Average Number of hTERT Transcripts ([2]; quantitative real-time RT-PCR): 17.57

SMILES: CSc1nc2nc(C)c(C(C)=O)c(C)n2n1 [compound 1361]
- Average Cell Viability after 24 Hours (% DMSO) [1]: 109.24 % DMSO
- Average Number of hTERT Transcripts ([2]; quantitative real-time RT-PCR): 17.57

SMILES: Cc1ccc(C)c(NC(=O)c2ccccc2NS(=O)(=O)c2cc([N+](=O)[O-])ccc2C)c1 [compound 1539]
- Average Cell Viability after 24 Hours (% DMSO) [1]: 65.11 % DMSO
- Average Number of hTERT Transcripts [2]: 37.11

SMILES: Oc1c(C(Nc2ccccn2)c2ccccc2Cl)ccc2cccnc12 (stereo not shown) [compound 1094]
- Average Cell Viability after 24 Hours (% DMSO) [1]: 56.64 % DMSO
- Average Number of hTERT Transcripts ([2]; quantitative real-time RT-PCR): 32.08

SMILES: CCC(=O)Nc1c(Br)cc(C)cc1C(=O)O [compound 1371]
- Average Cell Viability after 24 Hours (% DMSO) [1]: 105.87 % DMSO
- Average Number of hTERT Transcripts [2]: 5.46

SMILES: COC(=O)COc1ccc(S(=O)(=O)NCc2ccc(C)cc2)cc1 [compound 1551]
- Average Cell Viability after 24 Hours (% DMSO) [1]: 40.32 % DMSO
- Average Number of hTERT Transcripts [2]: 16.60

SMILES: CCCC1=NN(c2ccc(Cl)cc2)C(=O)C1 [compound 1122]
- Average Cell Viability after 24 Hours (% DMSO) [1]: 66.57 % DMSO
- Average Number of hTERT Transcripts ([2]; quantitative real-time RT-PCR): 13.40

SMILES: COc1ccc(S(=O)(=O)N(CC(=O)NC2CC3CCC2C3)c2ccccc2)cc1OC (stereo not shown) [compound 1421]
- Average Cell Viability after 24 Hours (% DMSO) [1]: 104.42 % DMSO
- Average Number of hTERT Transcripts [2]: 6.96

SMILES: O=C(Nc1nc(-c2ccccn2)cs1)c1cccc(S(=O)(=O)N2CCOCC2)c1 [compound 1173]
- Average Cell Viability after 24 Hours (% DMSO) [1]: 86.99 % DMSO
- Average Number of hTERT Transcripts ([2]; quantitative real-time RT-PCR): 43.63

SMILES: CN(C)CCCCNC(=O)c1cc(-c2cccs2)on1 [compound 1515]
- Average Cell Viability after 24 Hours (% DMSO) [1]: 96.89 % DMSO
- Average Number of hTERT Transcripts [2]: 113.63

SMILES: O=C1c2oc3ccccc3c(=O)c2C(c2cccc(OCc3ccccc3)c2)N1c1nccs1 (stereo not shown) [compound 1324]
- Average Cell Viability after 24 Hours (% DMSO) [1]: 57.19 % DMSO
- Average Number of hTERT Transcripts ([2]; quantitative real-time RT-PCR): 8.42

SMILES: CN(C)S(=O)(=O)c1ccc(C(=O)Nc2nc(-c3ccccn3)cs2)cc1 [compound 1504]
- Average Cell Viability after 24 Hours (% DMSO) [1]: 76.43 % DMSO
- Average Number of hTERT Transcripts [2]: 40.27

SMILES: Cc1csc(-n2nc(C)c(CC(=O)Nc3ccc(Br)cc3)c2O)n1 [compound 1123]
- Average Cell Viability after 24 Hours (% DMSO) [1]: 79.37 % DMSO
- Average Number of hTERT Transcripts ([2]; quantitative real-time RT-PCR): 58.23

SMILES: Cc1nn2c(=O)cc(-c3ccccc3Cl)[nH]c2c1-c1ccccc1 [compound 1164]
- Average Cell Viability after 24 Hours (% DMSO) [1]: 71.68 % DMSO
- Average Number of hTERT Transcripts ([2]; quantitative real-time RT-PCR): 56.66

SMILES: O=C(CSc1nnc(-c2ccncc2)o1)NCc1ccccc1Br [compound 1493]
- Average Cell Viability after 24 Hours (% DMSO) [1]: 100.09 % DMSO
- Average Number of hTERT Transcripts [2]: 6.84

SMILES: Cc1nn2c(=O)c(Cl)c(C)[nH]c2c1-c1ccccc1 [compound 1153]
- Average Cell Viability after 24 Hours (% DMSO) [1]: 88.39 % DMSO
- Average Number of hTERT Transcripts ([2]; quantitative real-time RT-PCR): 5.84

SMILES: Cc1cccc(NC(=O)c2c(NC(=O)c3ccncc3)sc3c2CCC(C(C)(C)C)C3)c1 (stereo not shown) [compound 1233]
- Average Cell Viability after 24 Hours (% DMSO) [1]: 61.61 % DMSO
- Average Number of hTERT Transcripts ([2]; quantitative real-time RT-PCR): 41.94

SMILES: O=C(NCc1nccs1)c1cc(-c2cccs2)on1 [compound 1499]
- Average Cell Viability after 24 Hours (% DMSO) [1]: 119.54 % DMSO
- Average Number of hTERT Transcripts [2]: 17.01

SMILES: CC1=NN(c2ccc(C)c(C)c2)C(=O)/C1=C\NNC(=O)c1ccccc1 [compound 1464]
- Average Cell Viability after 24 Hours (% DMSO) [1]: 67.60 % DMSO
- Average Number of hTERT Transcripts [2]: 18.97

SMILES: CCOC(=O)COc1ccc2c(=O)c(-c3ccccc3Cl)c(C)oc2c1C [compound 1337]
- Average Cell Viability after 24 Hours (% DMSO) [1]: 67.33 % DMSO
- Average Number of hTERT Transcripts ([2]; quantitative real-time RT-PCR): 30.15

SMILES: Cc1c2c(=O)n(-c3nc4ccccc4s3)nc-2cc(O)n1Cc1ccccc1 [compound 1117]
- Average Cell Viability after 24 Hours (% DMSO) [1]: 84.16 % DMSO
- Average Number of hTERT Transcripts ([2]; quantitative real-time RT-PCR): 57.88

SMILES: Cc1cc(C2CCCCC2)n(O)c(=O)c1 [compound 1250]
- Average Cell Viability after 24 Hours (% DMSO) [1]: 67.25 % DMSO
- Average Number of hTERT Transcripts ([2]; quantitative real-time RT-PCR): 184.64

SMILES: CC(=O)Oc1ccc(C2Nc3ccc4ccccc4c3C3C=CCC32)c(OC(C)=O)c1 (stereo not shown) [compound 1461]
- Average Cell Viability after 24 Hours (% DMSO) [1]: 55.44 % DMSO
- Average Number of hTERT Transcripts [2]: 29.65
